In patent publication US20230066011A1, “PYRROLOPYRIMIDINE DERIVATIVE, AND PHARMACEUTICAL COMPOSITION FOR PREVENTING OR TREATING PROTEIN KINASE-RELATED DISEASE COMPRISING SAME AS ACTIVE INGREDIENT” (VORONOI CO., LTD., priority 2019, published 2023):

How the values were obtained:
LRRK2 = LRRK2 (Homo sapiens, UniProt Q5S007); assay: LRRK2 enzyme inhibition, ADP-Glo kinase assay; assay type: biochemical; parameters: purchased Invitrogen PR8604B; conditions: ATP 10 μM
In short: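 ADP-Glo luminescent read-out of ADP formed by purified human LRRK2 enzyme (25 ng), 10 μM ATP, 0.2 μg substrate, 25° C for 2 h, Tris-HCl pH 7.4 buffer with MgCl2, BSA, DTT. Inhibition versus untreated solvent control over twelve final concentrations (50 μM downward) gives IC50.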

IL-6 = assay: Inhibition of LPS-induced IL-6 secretion of THP-1 monocytes (ELISA); assay type: cell-based, human; conditions: Homo sapiens, THP-1; compound 0.5 μM, LPS 500 ng/mL, 24 hours; read-out: THP1/IL6 (% inhib)
In short: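 THP-1 monocytes grown 16 h at 37 °C, pretreated 1 h with compound at final 0.5 μM, then stimulated with LPS at final 500 ng/mL for 24 h. IL-6 and TNF-α in culture supernatant measured by ELISA (OD 450 nm).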

human GST-DYRK1A = biological target: T1, human GST-DYRK1A (Homo sapiens, UniProt Q13627); assay: GST-DYRK1A enzyme inhibition, ADP-Glo kinase assay; assay type: biochemical; conditions: ATP 10 μM, GST-DYRK1A full length, read-out: DYRK1 IC50
T1 construct: purified human GST-DYRK1A (full length, Thermo Scientifics) enzyme; purchased Thermo Scientifics
In short: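 Full-length enzyme (10 ng) was incubated with 10 μM ATP and a specific substrate for 1 h at 25 °C in 40 mM Tris-HCl pH 7.4, 20 mM MgCl2, 0.5 mg/mL BSA, 50 μM DTT. Luminescence was read against a solvent control, and IC50 values were derived from 3 data sets.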

LRRK2 (G2019S) = LRRK2 (G2019S) (Homo sapiens, UniProt Q5S007, G2019S); assay: LRRK2 G2019S enzyme inhibition, ADP-Glo kinase assay; assay type: biochemical; parameters: purchased SignalChem L10-12GG; conditions: ATP 25 μM
LRRK2 (G2019S), sequence (Q5S007 970-2527 G2019S limits assumed): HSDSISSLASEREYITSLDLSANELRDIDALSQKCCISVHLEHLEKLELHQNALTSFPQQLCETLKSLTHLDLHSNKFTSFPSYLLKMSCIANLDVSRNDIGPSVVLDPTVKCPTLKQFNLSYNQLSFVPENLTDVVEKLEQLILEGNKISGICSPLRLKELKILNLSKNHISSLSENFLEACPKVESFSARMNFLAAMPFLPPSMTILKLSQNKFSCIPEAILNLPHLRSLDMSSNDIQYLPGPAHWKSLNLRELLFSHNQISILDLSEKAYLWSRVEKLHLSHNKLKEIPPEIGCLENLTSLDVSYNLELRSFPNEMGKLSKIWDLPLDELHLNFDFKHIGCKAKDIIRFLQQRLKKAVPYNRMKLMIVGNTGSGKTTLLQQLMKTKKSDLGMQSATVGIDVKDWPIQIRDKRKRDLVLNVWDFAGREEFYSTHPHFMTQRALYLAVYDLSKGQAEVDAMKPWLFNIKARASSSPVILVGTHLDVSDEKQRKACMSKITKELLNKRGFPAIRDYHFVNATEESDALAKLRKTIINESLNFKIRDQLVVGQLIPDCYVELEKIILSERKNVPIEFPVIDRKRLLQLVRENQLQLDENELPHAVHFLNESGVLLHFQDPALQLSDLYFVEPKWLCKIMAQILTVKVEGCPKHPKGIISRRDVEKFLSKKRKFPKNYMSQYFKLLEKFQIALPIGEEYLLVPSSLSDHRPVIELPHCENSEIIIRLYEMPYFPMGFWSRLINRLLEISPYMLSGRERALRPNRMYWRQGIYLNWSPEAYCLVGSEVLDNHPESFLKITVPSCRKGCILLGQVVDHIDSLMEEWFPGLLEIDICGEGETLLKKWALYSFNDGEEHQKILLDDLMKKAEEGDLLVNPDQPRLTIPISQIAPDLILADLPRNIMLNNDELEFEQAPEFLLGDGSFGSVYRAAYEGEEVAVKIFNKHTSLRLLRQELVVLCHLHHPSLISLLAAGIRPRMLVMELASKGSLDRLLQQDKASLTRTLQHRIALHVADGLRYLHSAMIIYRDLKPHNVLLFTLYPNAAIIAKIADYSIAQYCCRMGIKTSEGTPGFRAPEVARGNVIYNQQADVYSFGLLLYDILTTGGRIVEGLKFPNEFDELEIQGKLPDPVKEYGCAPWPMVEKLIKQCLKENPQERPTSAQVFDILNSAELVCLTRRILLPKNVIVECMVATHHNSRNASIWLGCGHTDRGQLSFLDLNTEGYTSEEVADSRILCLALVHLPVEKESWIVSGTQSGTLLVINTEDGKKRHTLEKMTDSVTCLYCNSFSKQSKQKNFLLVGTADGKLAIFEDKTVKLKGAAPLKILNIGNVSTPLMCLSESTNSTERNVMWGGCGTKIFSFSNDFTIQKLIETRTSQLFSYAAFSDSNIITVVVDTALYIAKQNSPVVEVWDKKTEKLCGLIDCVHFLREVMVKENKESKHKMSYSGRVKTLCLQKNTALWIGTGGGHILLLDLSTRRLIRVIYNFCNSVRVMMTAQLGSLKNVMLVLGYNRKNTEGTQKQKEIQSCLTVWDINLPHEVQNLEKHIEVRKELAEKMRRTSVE
In short: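 IC50 derived from luminescent ADP-Glo readout against untreated solvent control, twelve final compound concentrations from 50 μM downward. Reaction: recombinant human LRRK2 G2019S enzyme, 25 μM ATP, substrate, pH 7.4 Tris buffer with MgCl2/BSA/DTT, 25° C. for 2 hours.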

LRRK2, sequence (Q5S007 970-2527 limits assumed): as the sequence (Q5S007 970-2527 G2019S limits assumed) above, with S1050G counted along it

SMILES	IC50 (LRRK2) [nM]	inhibition at 0.5 µM (IL-6) [%]	IC50 (human GST-DYRK1A) [nM]	IC50 (LRRK2 (G2019S)) [nM]
CCNc1nc(Nc2ccc(C(=O)N3CCC(N4CCOCC4)CC3)c3c2OCC3)nc2[nH]cc(C(F)(F)F)c12 [Example 438, (7-((4-(ethylamino)-5-(trifluoromethyl)-7H-pyrrolo[2,3-d]pyrimidin-2-yl)amino)-2,3-dihydrobenzo-furan-4-yl)(4-morpho-linopiperidin-1-yl)methanone]	< 100	25.8	< 100	< 100
O=C(c1ccc(Nc2nc(NC3CC3)c3c(C(F)(F)F)c[nH]c3n2)c2c1CCO2)N1CCC(N2CCOCC2)CC1 [Example 434, (7-((4-(cyclopropyl-amino)5-(trifluoromethyl)-7H-pyrrolo[2,3-d]pyrimidin-2-yl)amino)-2,3-dihydrobenzo-furan-4-yl)(4-morpho-linopiperidin-1-yl)methanone]	< 100	34.1	< 100	< 100
C=CCNc1nc(Nc2ccc(S(=O)(=O)N3CCC(N4CCOCC4)CC3)cc2OC)nc2[nH]cc(C#N)c12 [Example 361, 4-(allylamino)-2-((2-methoxy-4-((4-morpholino-piperidin-1-yl)sulfonyl)phenyl)amino)-7H-pyrrolo[2,3-d]pyrimidine-5-carbonitrile]	< 100	21.7	301 to 1000	< 100
COCCNc1nc(Nc2ccc(C(=O)N3CCC(N4CCOCC4)CC3)c3c2OCC3)nc2[nH]cc(C(F)(F)F)c12 [Example 443, (7-((4-((2-methoxyethyl)amino)-5-(trifluoromethyl)-7H-pyrrolo[2,3-d]pyrimidin-2-yl)amino)-2,3-dihydrobenzo-furan-4-yl)(4-morpho-linopiperidin-1-yl)methanone]	< 100	4.6	< 100	< 100
O=C(c1ccc(Nc2nc(NCC3CC3)c3c(C(F)(F)F)c[nH]c3n2)c2c1CCO2)N1CCC(N2CCOCC2)CC1 [Example 461, (7-((4-((cyclo-propylmeth-yl)amino)-5-(trifluoromethyl)-7H-pyrrolo[2,3-d]pyrimidin-2-yl)amino)-2,3-dihydrobenzo-furan-4-yl)(4-morpho-linopiperidin-1-yl)methanone]	< 100	25.7	< 100	< 100
CNc1nc(Nc2ccc(S(=O)(=O)N3CCC(N4CCOCC4)CC3)c3c2OCCO3)nc2[nH]cc(C(F)(F)F)c12 [Example 219, N^4-methyl-N^2-(8-((4-morpholinopiperidin-1-yl)sulfonyl)-2,3-dihydrobenzo[b][1,4]dioxin-5-yl)-5-(trifluoromethyl)-7H-pyrrolo[2,3-d]pyrimidine-2,4-diamine]	< 100	10.9	< 100	< 100
CCNc1nc(Nc2ccc(S(=O)(=O)N3CCC(N4CCOCC4)CC3)c3c2OCCO3)nc2[nH]cc(C(F)(F)F)c12 [Example 430, N^4-ethyl-N^2-(8-((4-morpholino-piperidin-1-yl)sulfonyl)-2,3-dihydro-benzo[b][1,4]dioxin-5-yl)-5-(trifluoromethyl)-7H-pyrrolo[2,3-d]pyrimidine-2,4-diamine]	< 100	21	301 to 1000	< 100
COCCNc1nc(Nc2ccc(C(=O)N3CCN(C4COC4)CC3)c3c2OCCO3)nc2[nH]cc(C(F)(F)F)c12 [Example 403, (8-((4-((2-methoxyethyl)-amino)-5-(trifluoromethyl)-7H-pyrrolo[2,3-d]pyrimidin-2-yl)amino)-2,3-dihydrobenzo[b] [1,4]dioxin-5-yl) (4-(oxetan-3-yl)piperazin-1-yl)methanone]	< 100	30.1	< 100	–
CCNc1nc(Nc2ccc(C(=O)N3CC[C@H](N4CCOCC4)C3)c3c2OCC3)nc2[nH]cc(C(F)(F)F)c12 [Example 475, (S)-(7-((4-(ethylamino)-5-(trifluoromethyl)-7H-pyrrolo[2,3-d]pyrimidin-2-yl)amino)-2,3-dihydrobenzo-furan-4-yl)(3-morpholino-pyrrolidin-1-yl)methanone]	< 100	42.5	< 100	< 100
CCCNc1nc(Nc2ccc(C(=O)N3CCC(N4CCOCC4)CC3)c3c2OCC3)nc2[nH]cc(C(F)(F)F)c12 [Example 446, (4-morpholino-piperidin-1-yl)(7-((4-(propylamino)-5-(trifluoromethyl)-7H-pyrrolo[2,3-d]pyrimidin-2-yl)amino)-2,3-dihydrobenzo-furan-4-yl)methanone]	< 100	17.3	< 100	< 100
CCNc1nc(Nc2ccc(C(=O)N3CCC(N4C[C@@H]5C[C@H]4CO5)CC3)c3c2OCC3)nc2[nH]cc(C(F)(F)F)c12 [Example 468]	< 100	22.4	< 100	< 100
O=C(c1ccc(Nc2nc(NC3CCCC3)c3c(C(F)(F)F)c[nH]c3n2)c2c1OCCO2)N1CCN(C2COC2)CC1 [Example 414, (8-((4-(cyclopentyl-amino)-5-(trifluoromethyl)-7H-pyrrolo[2,3-d]pyrimidin-2-yl)amino)-2,3-dihydrobenzo[b] [1,4]dioxin-5-yl) (4-(oxetan-3-yl)piperazin-1-yl)methanone]	< 100	47.3	< 100	< 100
CCNc1nc(Nc2ccc(C(=O)N3CCC(N4CCOCC4)CC3)c3c2OCC3)nc2[nH]cc(C#N)c12 [Example 347, 4-(ethylamino)-2-((4-(4-morpholino-piperidine-1-carbonyl)-2,3-dihydro-benzofuran-7-yl)amino)-7H-pyrrolo[2,3-d]pyrimidine-5-carbonitrile]	< 100	14.1	< 100	< 100
COc1cc(P2(=O)CCN(C3CCOCC3)CC2)ccc1Nc1nc(NC2CC2)c2c(C(F)(F)F)c[nH]c2n1 [Example 435, 4-(4-((4-(cyclo-propylamino)-5-(trifluoromethyl)-7H-pyrrolo[2,3-d]pyrimidin-2-yl)amino)-3-methoxyphenyl)-1-(tetrahydro-2H-pyran-4-yl)-1,4-azaphosphinane 4-oxide]	< 100	22.2	< 100	–
CNc1nc(Nc2ccc(C(=O)N3CC[C@H](N4CCOCC4)C3)c3c2OCC3)nc2[nH]cc(C(F)(F)F)c12 [Example 236, (S)-(7-((4-(methylamino)-5-(trifluoromethyl)-7H-pyrrolo[2,3-d]pyrimidin-2-yl)amino)-2,3-dihydrobenzofuran-4-yl)(3-morpholinopyrrolidin-1-yl)methanone]	< 100	22.9	< 100	< 100
CNc1nc(Nc2ccc(C(=O)N3CCN(C4COC4)CC3)c3c2OCCO3)nc2[nH]cc(C(F)(F)F)c12 [Example 397, (8-((4-(methylamino)-5-(trifluoromethyl)-7H-pyrrolo[2,3-d]pyrimidin-2-yl)amino)-2,3-dihydrobenzo[b] [1,4]dioxin-5-yl) (4-(oxetan-3-yl)piperazin-1-yl)methanone]	< 100	32	101 to 300	< 100
CNc1nc(Nc2ccc(C(=O)N3CCC(N4CCOCC4)CC3)c3c2OCC3)nc2[nH]cc(C(F)(F)F)c12 [Example 217, (7-((4-(methylamino)-5-(trifluoromethyl)-7H-pyrrolo[2,3-d]pyrimidin-2-yl)amino)-2,3-dihydrobenzofuran-4-yl)(4-morpholinopiperidin-1-yl)methanone]	< 100	23.4	< 100	< 100
